The source of these data is paper PMC7688903 (Frontiers in Microbiology, 2020).

SMILES strings stand for the structures. In brackets after ≈: the same amount, converted by molar mass. Where a SMILES comes first, the peptide text is derived from it. [ ]: non-standard residue; d: D form. hArg = N=C(N)NCCCC[C@H](N)C(=O)O; Dab = NCC[C@H](N)C(=O)O; Dap = NC[C@H](N)C(=O)O

Series [1] relates to E. coli ATCC 25922. It is filed as cell-based, Escherichia coli. Particulars: ATCC 25922, 20 h. A digest of the protocol:
(§1)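 Inocula were set to 0.5 McFarland and diluted to ~5 × 10^5 CFU/mL (bacteria, MH broth) or 0.5 × 10^3 to 2.5 × 10^3 CFU/mL (yeast, RPMI 1640). Peptide twofold dilutions were added, plates incubated 20 h at 37°C or 48 h at 35°C, then scored by eye.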

The subject of series [2] is proteases secreted by A. baumannii ATCC 19606. Put plainly: in vitro. The settings on record: A. baumannii ATCC 19606 culture supernatant, pH 8. A digest of the protocol:
(§2)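 Cell-free culture supernatants (overnight, 37°C; MH broth for bacteria, 2% tryptone/2% dextrose for yeast) were centrifuged, adjusted to pH 8.0 and 0.22 μm filtered. Peptides at 0.5 mg/mL were incubated in supernatant 24 h at 37°C; remaining intact peptide measured by RP-HPLC, with peptide-free supernatant as negative control.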

Series [3] concerns proteases secreted by P. aeruginosa ATCC 27853. As to the kind of experiment: in vitro. The settings on record: P. aeruginosa ATCC 27853 culture supernatant, pH 8. The gist of the method:
as §2

Series [4] concerns proteases secreted by S. aureus ATCC 25923. Put plainly: in vitro. The settings on record: S. aureus ATCC 25923 culture supernatant, pH 8. The gist of the method: as §2
The test system of series [5] is RAW 264.7 cells. As to the kind of experiment: Cell viability assay (MTT). It is filed as cell-based, mouse. Particulars: 1–128 μM peptide in DMEM with 4% FBS, 42 h, 595 nm, triplicate. The gist of the method:
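RAW 264.7 cells (1 × 10^4/well, DMEM + 10% FBS) grown overnight to 80% confluency, then exposed to peptides at 1–128 μM in DMEM with 4% FBS for 42 h at 37 °C. MTT read at 595 nm; viability relative to medium-only controls, triplicate, IC50 as 50% loss of viability.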

Series [6] relates to C. albicans ATCC 10231. Put plainly: microbe, parasite or virus in culture. It is filed as cell-based, Candida albicans. The settings on record: ATCC 10231, 48 h. The gist of the method: as §1
Series [7] relates to A. baumannii ATCC 19606. Format: cell-based, Acinetobacter baumannii. The settings on record: ATCC 19606, 20 h. A digest of the protocol: as §1
Series [8] relates to carbapenem-resistant A. baumannii (CRAB) SIPI-025. Format: cell-based, Acinetobacter baumannii. Particulars: carbapenem-resistant (CRAB) SIPI-025, 20 h. The gist of the method: as §1
Series [9] has as its system P. aeruginosa ATCC 27853. It is filed as cell-based, Pseudomonas aeruginosa. The settings on record: ATCC 27853, 20 h. A digest of the protocol: as §1
Series [10] concerns carbapenem-resistant P. aeruginosa (CRPA) SIPI-012. It is filed as cell-based, Pseudomonas aeruginosa. Particulars: carbapenem-resistant (CRPA) SIPI-012, 20 h. The gist of the method:
as §1

Series [11] relates to human erythrocytes. Put plainly: Hemolytic activity assay. Format: cell-based. Particulars: human RBC in PB, 37°C, 1 h, OD420, total lysis control 0.1% SDS, three technical replicates. The gist of the method:
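Washed RBCs from a healthy volunteer were incubated with peptides at 32–128 μM for 1 h at 37°C in PB. Hemoglobin release into the supernatant was read as OD420 against total lysis with 0.1% SDS, in three technical replicates.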

The subject of series [12] is S. aureus ATCC 25923. Put plainly: microbe, parasite or virus in culture. Format: cell-based, Staphylococcus aureus. Particulars: ATCC 25923, 20 h. A digest of the protocol:
as §1

Series [13] relates to human plasma proteases. Put plainly: in vitro.
Protocol: The peptides were mixed with plasma from healthy volunteers to a final concentration of 0.1 mg/mL and incubated at 37°C. Aliquots (20 or 40 μL) were removed after 0, 2, 4, 6, 8, 12, 24, and 36 h, mixed with 0.05% TFA to a final concentration of 0.01 mg/mL, and incubated on ice for 10 min. After centrifugation (12,000 × g, 5 min), the supernatant was stored at −20°C. The samples were analyzed as described in section “Hydrophobicity” and quantified as described in section “Stability Toward Tryptic Degradation.” All stability tests were performed at least in triplicate. The identities of the metabolites after 12 h of degradation by plasma proteases were determined by LC-MS on a Waters Acquity UPLC-QDa system.

The term share remaining denotes what is left of the initial amount, in per cent. A lower share remaining goes with a greater loss. Usually IC50 stands for the midpoint of a concentration-inhibition curve. A high value points to weaker potency. Turning to `CC(C)C[C@H](NC(=O)[C@H](Cc1ccc(O)cc1)NC(=O)[C@H](CCN)NC(=O)[C@H](CC(C)C)NC(=O)[C@H](CC(C)C)NC(=O)[C@H](CN)NC(=O)[C@H](CN)NC(=O)[C@H](Cc1ccccc1)NC(=O)[C@H](CC(C)C)NC(=O)[C@H](CCCCNC(=N)N)NC(=O)[C@@H](N)CN)C(=O)N[C@@H](CCCCNC(=N)N)C(=O)N[C@@H](CCN)C(=O)N[C@@H](Cc1ccccc1)C(N)=O` [UP14] (H-[Dap][hArg]LF[Dap][Dap]LL[Dab]YL[hArg][Dab]F-NH2), the MIC in series [1] is 2 µg/mL (≈ 1.16 µM); in series [6], 4 µg/mL (≈ 2.32 µM); in series [7], 4 µg/mL (≈ 2.32 µM); in series [8], 4 µg/mL (≈ 2.32 µM); in [9], 2 µg/mL (≈ 1.16 µM); in series [10], 8 µg/mL (≈ 4.63 µM). In addition, the MIC in series [12] worked out at 0.5 µg/mL (≈ 0.29 µM). Besides, the results for the fraction remaining at 24 h, 0.5 mg/mL in series [2], in [3] and in series [4] were 12.9 ± 1.48%, 27.6 ± 6.76% and 57.3 ± 6.54%, respectively. For the same compound, in series [5], the IC50 was found to be 14 ± 2.67 µM. The results for the “Hemolysis rate (%)” value in series [11] (64 μM) and in series [11] (128 μM) were 66.51 ± 3.14 % and 74.68 ± 1.34 %, respectively.

In the case of `CC(C)C[C@H](NC(=O)[C@H](Cc1ccc(O)cc1)NC(=O)[C@H](CCCCN)NC(=O)[C@H](CC(C)C)NC(=O)[C@H](CC(C)C)NC(=O)[C@@H](CCCCN)NC(=O)[C@@H](CCCCN)NC(=O)[C@H](Cc1ccccc1)NC(=O)[C@H](CC(C)C)NC(=O)[C@@H](CCCNC(=N)N)NC(=O)[C@H](N)CCCCN)C(=O)N[C@@H](CCCNC(=N)N)C(=O)N[C@H](CCCCN)C(=O)N[C@@H](Cc1ccccc1)C(N)=O` [DP05] (H-[dK][dR]LF[dK][dK]LLKYLR[dK]F-NH2), the MIC worked out at 2 µg/mL (≈ 1.06 µM) in [1]; 2 µg/mL (≈ 1.06 µM) in [6]; 1 µg/mL (≈ 0.532 µM) in series [7]; 2 µg/mL (≈ 1.06 µM) in [8]; 1 µg/mL (≈ 0.532 µM) in [9]; 8 µg/mL (≈ 4.25 µM) in series [10]. The compound further returned an MIC in [12] of 1 µg/mL (≈ 0.532 µM). The compound also came in with a metabolised at 2 h, 0.1 mg/mL in series [13] above 40%. In addition, in series [13], the metabolised at 4 h, 0.1 mg/mL was above 50%. In addition, the share remaining at 24 h, 0.5 mg/mL in series [2] (Acinetobacter baumannii) is 31.7 ± 9%; in series [4] (Staphylococcus aureus), 66.7 ± 5.9%. Moreover, the half-inhibitory concentration (IC50) in [5] was 32.7 ± 3.44 µM. Moreover, the figures for the “Hemolysis rate (%)” value in series [11] (64 μM) and in series [11] (128 μM) were 30.09 ± 1.56% and 45.07 ± 2.93%, respectively.
